Measurements: publication PMC12682123, “Positron emission tomography to assess drug occupancy at peripheral and central incretin receptors” (eBioMedicine, 2025)
Where two headings read alike, the source gives them in different places. No end group written: not given here.

Key:
[1] = system: human GLP-1R; conditions: 10 nM tracer; for reduction of [^68Ga]Ga-DO3A-Exendin-4 binding: 60 min, RT, p < 0.0001
Procedure: The receptor specificity assay was repeated four times.
The following procedures were then performed for both assays: After incubation, the sections were washed with cold PBS (3× 1 min), dipped in MilliQ water, and air-dried at 37 °C for 10 min. Finally, the sections were exposed to digital phosphorimager plates (BAS-MS, Fujifilm) overnight (>10 radioactive half-lives) followed by digitalisation using a phosphorimage scanner (Amersham Typhoon FLA 9500 Phosphor Imager, GE) with a 50-μm pixel size for image visualisation. A 10 μl reference droplet, containing a known amount of radioactivity, was incorporated to facilitate the quantification of the autoradiogram.
The pixel values, measured in counts/mm^2, were transformed into Bq/mm^2 using the internal reference.

[2] = system: GLP-1R
From the text: Pigs (n = 9) were positioned in the PET/CT scanner (Discovery MI, GE Healthcare) in a supine position with the brain at the centre of the Field of View (FOV). […] The peptide mass dose was chosen to avoid self-block of the GLP-1R by unlabelled DO3A-Exendin-4 peptide in the formulation and was based on previous dose-escalation studies in non-human primates.[23] A dynamic 60-min PET scan was started at tracer injection, serving as the baseline scan to visualise and quantify GLP-1R expression under normal physiological conditions prior to drug intervention. Following the dynamic scan, a whole-body CT was acquired, immediately followed by a whole-body static PET scan covering the regions from the brain to the bladder.
One experiment used unlabelled DO3A-VS-Exendin-4 (6 μg/kg) as a positive control (Table 4).
The follow-up scan was designed to assess the decreased binding of the tracer to its receptor, which, when compared to the baseline scan, would indicate reduced receptor availability, such as that caused by drug occupancy at the target GLP-1 receptor.
The reconstructed dynamic and whole-body static PET images were analysed using PMOD Base Functionality (PBAS) tool (PMOD Technologies LLC, Zurich, Switzerland) through manual segmentation on trans-axial PET and CT projections. Segmented tissues included the descending aorta, pancreas, liver, spleen, kidneys, and muscle. The tracer distribution in brain regions was measured by automated segmentation of brain regions. This was achieved by fusing the acquired PET dynamic images with the PMOD MRI pig brain atlas. […] CVOs, such as pituitary gland, were not included in the brain atlas and were thus segmented manually.
(§2) The convention to the SUV was corrected to the time and administered amount of radioactivity (in MBq) and the weight (in kilograms) of the pig.
The target engagement or drug occupancy for each experiment was calculated by subtracting the SUV in a tissue at the follow-up scan from the SUV in the same tissue at the baseline scan. The difference was divided by the SUV in tissue at baseline and multiplied by 100 to reach the percentage of drug occupancy (Equation 1):Equation 1 Occupancy(%)=SUVbaseline−SUVfollow−up/SUVbaseline×100
All PET measurements were expressed as average SUVmean.

[3] = system: mice; conditions: central administration; cited from earlier work
From the text: One of the advancements of GLP-1R/GIPR co-activation is potentially the reduced nausea, food aversion, and emesis associated with GLP-1R-based treatment, in addition to an even more increased reduction in appetite and calorie intake.[26]^,[39] These effects may be associated with central activation of GLP-1 receptors by these drugs, and it has been proposed that the concurrent activation of central GIPR by tirzepatide exerts an anti-emetic effect, thereby improving tolerability to GLP-1 receptor–mediated side effects.

[4] = system: GIPR; assay: In vivo GIPR drug occupancy in pigs using [^68Ga]S02-GIP-T4 PET; design: species or system pig; conditions: infusion 0.5/50 μg/ml from 30 min before and throughout second scan, n = 1
Procedure: The study design for GIPR occupancy assessment in pigs was identical to that of GLP-1R, except for the following differences:
The pigs (n = 5) were positioned in the PET/CT scanner in a supine position with either the brain (n = 2) or the pancreas (n = 3) in the FOV when using [^68Ga]S02-GIP-T4. A target dose of 0.5–1 MBq/kg of [^68Ga]S02-GIP-T4, corresponding to a standardised peptide mass dose of 0.1 μg/kg, was administered for both baseline and follow-up scans (Tables 5 and 6). The peptide mass dose was chosen to avoid self-block of the GIPR, and based on previous dose-escalation studies in non-human primates.[16]
SAR441255 was administered subcutaneously at a dose of 100 μg/kg in four pigs, as described above (Table 5). […]
The reconstructed dynamic and whole-body static PET images were analysed using PMOD Base Functionality (PBAS) tool (PMOD Technologies LLC, Zurich, Switzerland) through manual segmentation on trans-axial PET and CT projections. […] The tracer distribution in brain regions was measured by automated segmentation of brain regions. […]
as §2
The target engagement or drug occupancy for each experiment was calculated by subtracting the SUV in a tissue at the follow-up scan from the SUV in the same tissue at the baseline scan. […]

[5] = cited from earlier work
From the text: (§1) This can likely be explained by the lower GLP-1R affinity of tirzepatide, which instead is shifted towards higher affinity to the GIPR.[26]

[6] = system: GIPR; conditions: in vitro; cited from earlier work
From the text: as §1

[7] = system: GLP-1R; conditions: in vitro; cited from earlier work
From the text: as §1

[8] = cited from earlier work; remark: listed apart in the source
From the text: Tirzepatide is the first dual GLP-1R/GIPR agonist approved for the treatment of type 2 diabetes (T2D).[11]

[9] = pre-administration of unlabelled peptide as positive control, 6 μg/kg / 10 μg/kg (Table 4), n = 1
[10] = even at highest doses (450 μg/kg) s.c.

For “DO3A-Exendin-4: unlabelled peptide used for blocking, positive control; made by in-house SPPS by Sanofi”, the “reduction of [^68Ga]Ga-DO3A-Exendin-4 binding” value ([1]; pre-incubated with 1 μM (10 min, PBS + 1% BSA)) was 80 ± 16%, the “decrease of [^68Ga]Ga-DO3A-Exendin-4 uptake in pancreas” value [2, 9] was 73% and the “decrease of [^68Ga]Ga-DO3A-Exendin-4 uptake in pituitary gland” value [2, 9] was 53%. For the same substance, the “reduction of [^68Ga]Ga-DO3A-Exendin-4 uptake in hypothalamic region” value [2, 9] was 55% and the “reduction of [^68Ga]Ga-DO3A-Exendin-4 uptake in mammillary body” value [2, 9] was 60%.

For “glucagon-like peptide-1 (HAEGTFTSDVSSYLEGQAAKEFIAWLVKGR; ends and bridges not checked; UniProt P01275 98-127, looked up) [GLP-1, endogenous incretin hormone]”, the food intake [3] is given as “reduced food intake”.

In the case of “glucose-dependent insulinotropic polypeptide [GIP (1–42)]”, the “decrease of pancreatic [^68Ga]S02-GIP-T4 signal” value [4] is given as 24% and the food intake [3] is given as “reduced food intake”.

With “tirzepatide: first dual GLP-1R/GIPR agonist approved for the treatment of type 2 diabetes” the “competition with [^68Ga]Ga-DO3A-Exendin-4 at GLP-1R” value ([1]; 10 μM) was “competed for an overlapping binding site of GLP-1R”, the “reduction of [^68Ga]Ga-DO3A-Exendin-4 binding” value ([1]; pre-incubated with 10 μM) was 84.9 ± 7% and the “occupancy in appetite-regulating brain regions” value ([2]; 50–450 μg/kg s.c., experimental design not aligned with Tmax) was “did not show detectable occupancy”. The “GLP-1R occupancy in pancreas, did not exceed” value [2, 10] was ≤ 60%, the “GLP-1R occupancy in pituitary, did not exceed” value [2, 10] was ≤ 60% and the “Tmax (in words)” value ([5]; extended plasma half-life, no reference given) was “on the order of days”. The Tmax ([5]; subcutaneous) was 8 to 72 h, the “affinity to GIPR vs endogenous GIP(1–42)” value [6] was “same affinity” and the “affinity to GLP-1R vs native GLP-1” value [7] was “fivefold lower affinity”. The “glucose-lowering effect vs mono GLP-1R agonism” value [8] was “greater glucose-lowering effect” and the “weight reduction vs mono GLP-1R agonism” value [8] was “greater weight reduction”.
